According to patent publication US9580416B2, “Inhibitors of Bruton's tyrosine kinase” (PHARMACYCLICS LLC, priority 2014, dated 2017):

Tests used:
Type in all cases: biochemical
[1] = molecular target: Btk (Homo sapiens, UniProt Q06187); test: Btk kinase activity, TR-FRET assay; settings: read-out: Btk (IC50)
Method in brief: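 Enzyme (Btk 0.5 nM; Lck 6 nM) reacted 1 h with inhibitor, ATP at Km and biotin-peptide substrate in pH 7.4 buffer, 10% DMSO. Phosphopeptide detected by Eu-p-Tyr100 antibody plus streptavidin-APC (665/615 nm). IC50 calculated from fitted Ki(app) via ATP/Km correction plus half total enzyme.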

[2] = molecular target: Lck (Homo sapiens, UniProt P06239); test: Lck kinase activity, TR-FRET assay; settings: read-out: LCK (IC50)
Description: Btk kinase activity is determined using a time-resolved fluorescence resonance energy transfer (TR-FRET) methodology. Measurements are performed in a reaction volume of 50 μL using 96-well assay plates. Kinase enzyme, inhibitor, ATP (at the Km for the kinase), and 1 […] (Biotin-AVLESEEELYSSARQ-NH2) are incubated in a reaction buffer composed of 20 mM Tris, 50 mM NaCl, MgCl2 (5-25 mM depending on the kinase), MnCl2 (0-10 mM), 1 mM DTT, 0.1 mM EDTA, 0.01% bovine serum albumin, 0.005% Tween-20, and 10% DMSO at pH 7.4 for one hour. The reaction is quenched by the addition of 1.2 equivalents of EDTA (relative to divalent cation) in 25 μL of 1× Lance buffer (Perkin-Elmer). Streptavidin-APC (Perkin-Elmer) and Eu-labeled p-Tyr100 antibody (Perkin-Elmer) in 1× Lance buffer are added in a 25 μL volume to give final concentrations of 100 nM and 2.5 nM, respectively, and the mixture is allowed to incubate for one hour. The TR-FRET signal is measured on a multimode plate reader with an excitation wavelength (λEx) of 330 nm and detection wavelengths (λEm) of 615 and 665 nm. Activity is determined by the ratio of the fluorescence at 665 nm to that at 615 nm. For each compound, enzyme activity is measured at various concentrations of compound. Negative control reactions are performed in the absence of inhibitor in replicates of six, and two no-enzyme controls are used to determine baseline fluorescence levels. Inhibition constants, Ki(app), ware obtained using the program BatchKi (Kuzmic et al. (2000), Anal. Biochem. 286:45-50). IC50s are obtained according to the equation: IC50={Ki(app)/(1+[ATP]/Km^ATP)}+[E]total/2;
For all kinases, [ATP]=Km^ATP, [Btk]total=0.5 nM and [Lck]total=6 nM.

[3] = molecular target: EGFR (Homo sapiens, UniProt P00533); test: Inhibition of a panel of kinases, in vitro HotSpot kinase assay: EGFR
Description: The degree of inhibition of a panel of kinases is determined using the in vitro HotSpot kinase assay (purified enzymes, ^33P-ATP, an appropriate substrate and 1 uM ATP).

Sequence of EGFR (P00533 25-1210): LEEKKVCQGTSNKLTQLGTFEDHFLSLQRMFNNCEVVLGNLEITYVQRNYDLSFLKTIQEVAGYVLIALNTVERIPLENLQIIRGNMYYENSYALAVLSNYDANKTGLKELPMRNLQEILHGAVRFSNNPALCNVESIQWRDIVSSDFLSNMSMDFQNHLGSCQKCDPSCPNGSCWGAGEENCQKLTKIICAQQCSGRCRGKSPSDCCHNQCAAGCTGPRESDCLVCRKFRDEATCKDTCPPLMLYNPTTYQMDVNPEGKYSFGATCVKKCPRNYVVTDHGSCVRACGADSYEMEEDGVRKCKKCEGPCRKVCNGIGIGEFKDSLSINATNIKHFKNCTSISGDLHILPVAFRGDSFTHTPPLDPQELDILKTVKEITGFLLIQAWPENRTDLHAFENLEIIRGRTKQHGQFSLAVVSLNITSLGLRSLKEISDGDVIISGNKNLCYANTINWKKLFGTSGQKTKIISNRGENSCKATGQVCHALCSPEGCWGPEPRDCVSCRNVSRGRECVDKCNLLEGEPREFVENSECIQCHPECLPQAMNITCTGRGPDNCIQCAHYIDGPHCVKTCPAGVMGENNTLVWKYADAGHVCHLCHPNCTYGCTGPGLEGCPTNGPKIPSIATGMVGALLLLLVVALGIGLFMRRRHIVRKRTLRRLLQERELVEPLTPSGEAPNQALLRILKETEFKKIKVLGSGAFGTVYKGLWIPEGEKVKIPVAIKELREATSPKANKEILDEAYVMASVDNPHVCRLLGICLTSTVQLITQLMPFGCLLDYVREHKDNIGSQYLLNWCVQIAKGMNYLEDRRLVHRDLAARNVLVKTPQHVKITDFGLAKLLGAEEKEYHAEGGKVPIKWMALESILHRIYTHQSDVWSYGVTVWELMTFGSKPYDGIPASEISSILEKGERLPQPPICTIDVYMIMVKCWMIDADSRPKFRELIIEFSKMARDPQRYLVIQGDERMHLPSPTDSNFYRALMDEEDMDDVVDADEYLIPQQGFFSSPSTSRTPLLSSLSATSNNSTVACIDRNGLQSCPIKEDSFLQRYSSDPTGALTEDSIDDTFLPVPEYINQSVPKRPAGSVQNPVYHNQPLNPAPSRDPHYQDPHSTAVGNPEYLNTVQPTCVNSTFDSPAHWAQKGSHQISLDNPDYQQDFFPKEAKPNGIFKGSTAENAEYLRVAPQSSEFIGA
Sequence of Lck (P06239 whole entry, species assumed): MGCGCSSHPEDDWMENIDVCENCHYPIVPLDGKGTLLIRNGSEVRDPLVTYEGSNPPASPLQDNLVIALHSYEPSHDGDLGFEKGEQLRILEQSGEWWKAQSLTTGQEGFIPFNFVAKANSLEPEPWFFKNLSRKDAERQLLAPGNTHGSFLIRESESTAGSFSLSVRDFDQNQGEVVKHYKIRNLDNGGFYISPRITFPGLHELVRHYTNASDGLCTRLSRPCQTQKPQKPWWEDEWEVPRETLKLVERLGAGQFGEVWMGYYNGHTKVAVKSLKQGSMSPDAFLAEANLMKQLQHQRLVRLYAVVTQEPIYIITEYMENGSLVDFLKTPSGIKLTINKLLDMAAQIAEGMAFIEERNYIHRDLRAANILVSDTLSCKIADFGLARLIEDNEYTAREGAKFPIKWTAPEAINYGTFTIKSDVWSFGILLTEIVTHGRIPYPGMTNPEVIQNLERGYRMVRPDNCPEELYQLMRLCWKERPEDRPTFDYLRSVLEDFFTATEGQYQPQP
Sequence of Btk (Q06187 whole entry): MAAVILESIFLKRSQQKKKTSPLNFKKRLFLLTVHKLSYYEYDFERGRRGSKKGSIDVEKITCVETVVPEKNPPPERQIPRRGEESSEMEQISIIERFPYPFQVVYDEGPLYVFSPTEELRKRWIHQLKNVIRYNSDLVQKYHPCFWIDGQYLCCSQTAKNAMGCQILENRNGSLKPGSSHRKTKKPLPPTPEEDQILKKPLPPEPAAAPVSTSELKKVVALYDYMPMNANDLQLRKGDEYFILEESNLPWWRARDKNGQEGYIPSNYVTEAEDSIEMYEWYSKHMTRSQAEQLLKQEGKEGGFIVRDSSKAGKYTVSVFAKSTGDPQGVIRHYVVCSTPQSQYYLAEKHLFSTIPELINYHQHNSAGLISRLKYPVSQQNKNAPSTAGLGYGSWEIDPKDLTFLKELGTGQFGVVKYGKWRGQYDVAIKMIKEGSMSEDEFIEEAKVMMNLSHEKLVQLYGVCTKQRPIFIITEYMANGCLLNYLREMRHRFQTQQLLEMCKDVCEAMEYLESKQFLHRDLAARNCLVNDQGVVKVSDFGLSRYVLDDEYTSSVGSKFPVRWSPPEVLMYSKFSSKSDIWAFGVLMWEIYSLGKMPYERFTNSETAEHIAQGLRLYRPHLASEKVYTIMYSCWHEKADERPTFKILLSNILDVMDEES

Row | Compound | IC50 [1] [nM] | IC50 [2] [nM] | IC50 [3] [nM]
1 | CCC(=O)N1CC[C@@H](Nc2n[nH]c3nccc(Oc4ccc(C(=O)Nc5nnc(C)[nH]5)cc4)c23)C1 [compound 75, N-(5-methyl-4H-1,2,4-triazol-3-yl)-4-[(3-{[(3R)-1-propanoylpyrrolidin-3-yl]amino}-1H-pyrazolo[3,4-b]pyridin-4-yl)oxy]benzamide] | > 10000 | > 10000 | > 10000
2 | CN(C/C=C/C(=O)N1CCC[C@H]1CNc1n[nH]c2nccc(Oc3ccc(Oc4ccccc4)cc3)c12)C1CC1 [compound 36] | < 100 | < 100 | 1000 to 10000
3 | CN(C/C=C/C(=O)N1CC[C@@H](Nc2n[nH]c3nccc(Oc4ccc(Oc5ccccc5)cc4C#N)c23)C1)C1CC1 [compound 35, 2-[(3-{[(3R)-1-[(2E)-4-[cyclopropyl(methyl)amino]but-2-enoyl]pyrrolidin-3-yl]amino}-1H-pyrazolo[3,4-b]pyridin-4-yl)oxy]-5-phenoxybenzonitrile] | 100 to 1000 | 1000 to 10000 | > 10000
4 | CN(C/C=C/C(=O)N1CC[C@@H](Nc2n[nH]c3nccc(Oc4ccc(C(=O)Nc5ccncn5)cc4)c23)C1)C1CC1 [compound 64] | 100 to 1000 | > 10000 | > 10000
5 | CN(C)c1ccnc(NC(=O)c2ccc(Oc3ccnc4[nH]nc(N[C@@H]5CCN(C(=O)/C=C/CN(C)C6CC6)C5)c34)cc2)c1 [compound 68] | < 100 | 1000 to 10000 | > 10000
6 | CCC(=O)N1CC[C@@H](Nc2n[nH]c3nccc(Oc4ccc(C(=O)Nc5nc6ccccc6[nH]5)cc4)c23)C1 [compound 69] | 100 to 1000 | 100 to 1000 | > 10000
7 | N#C/C(=C\c1ccccc1)C(=O)N1CC[C@@H](Nc2n[nH]c3nccc(Oc4ccc(Oc5ccccc5)cc4)c23)C1 [compound 19, (2E)-2-[(E)-(3R)-3-{[4-(4-phenoxyphenoxy)-1H-pyrazolo[3,4-b]pyridin-3-yl]amino}pyrrolidine-1-carbonyl]-3-phenylprop-2-enenitrile] | < 100 | 100 to 1000 | 100 to 1000
8 | CN(C)C/C=C/C(=O)N1CC[C@@H](Nc2n[nH]c3nccc(Oc4ccn(Cc5ccccc5)c(=O)c4)c23)C1 [compound 15, 1-benzyl-4-[(3-{[(3R)-1-[(2E)-4-(dimethylamino)but-2-enoyl]pyrrolidin-3-yl]amino}-1H-pyrazolo[3,4-b]pyridin-4-yl)oxy]-1,2-dihydropyridin-2-one] | 100 to 1000 | > 10000 | > 10000
9 | CN(C)C/C=C/C(=O)N1CC[C@@H](Nc2n[nH]c3nccc(Oc4cccc(Nc5ccncn5)c4)c23)C1 [compound 20, (2E)-4-(dimethylamino)-1-[(3R)-3-[(4-{3-[(pyrimidin-4-yl)amino]phenoxy}-1H-pyrazolo[3,4-b]pyridin-3-yl)amino]pyrrolidin-1-yl]but-2-en-1-one] | > 10000 | > 10000 | 1000 to 10000
10 | CN(C/C=C/C(=O)N1CCCC[C@H]1CNc1n[nH]c2nccc(Oc3ccc(Oc4ccccc4)cc3)c12)C1CC1 [compound 37] | < 100 | 100 to 1000 | 1000 to 10000
11 | CN1CC[C@@H](Nc2n[nH]c3nccc(Oc4ccc(Oc5ccccc5)cc4)c23)C1 [compound 45] | < 100 | < 100 | 100 to 1000
12 | CCC(=O)N1CC[C@@H](Nc2n[nH]c3nccc(Oc4ccc(C(=O)Nc5nccn5C)cc4)c23)C1 [compound 73, N-(1-methyl-1H-imidazol-2-yl)-4-[(3-{[(3R)-1-propanoylpyrrolidin-3-yl]amino}-1H-pyrazolo[3,4-b]pyridin-4-yl)oxy]benzamide] | > 10000 | > 10000 | > 10000
13 | CN(C/C=C/C(=O)N1CC[C@@H](Nc2n[nH]c3ncnc(Oc4ccc(Oc5ccccc5)cc4)c23)C1)C1CC1 [compound 48] | 100 to 1000 | 1000 to 10000 | 100 to 1000
14 | CN(C/C=C/C(=O)N1CC[C@@H](Nc2n[nH]c3nccc(Oc4ccc(C(=O)Nc5ncccn5)cc4)c23)C1)C1CC1 [compound 63] | 100 to 1000 | > 10000 | > 10000
15 | Cc1ccnc(NC(=O)c2ccc(Oc3ccnc4[nH]nc(N[C@@H]5CCCN(C(=O)C6COC6)C5)c34)cc2)c1 [compound 90, N-(4-methylpyridin-2-yl)-4-[(3-{[(3R)-1-(oxetan-3-carbonyl)piperidin-3-yl]amino}-1H-pyrazolo[3,4-b]pyridin-4-yl)oxy]benzamide] | < 100 | 100 to 1000 | 1000 to 10000
16 | Cc1ccnc(NC(=O)c2ccc(Oc3ccnc4[nH]nc(N[C@@H]5CCCN(C(=O)C6CCN(C)CC6)C5)c34)cc2)c1 [compound 92, 4-[(3-{[(3R)-1-(1-methylpiperidine-4-carbonyl)piperidin-3-yl]amino}-1H-pyrazolo[3,4-b]pyridin-4-yl)oxy]-N-(4-methylpyridin-2-yl)benzamide] | < 100 | 100 to 1000 | 1000 to 10000
17 | CN(C)C/C=C/C(=O)N1CC[C@@H](Nc2n[nH]c3nccc(Oc4ccc(Oc5ccccc5)cc4C#N)c23)C1 [compound 34, 2-[(3-{[(3R)-1-[(2E)-4-(dimethylamino)but-2-enoyl]pyrrolidin-3-yl]amino}-1H-pyrazolo[3,4-b]pyridin-4-yl)oxy]-5-phenoxybenzonitrile] | < 100 | 100 to 1000 | 1000 to 10000

The remaining lines, values ahead:

Row | IC50 [1] [nM] | IC50 [2] [nM] | IC50 [3] [nM] | Compound
18 | < 100 | 100 to 1000 | 100 to 1000 | CN(C/C=C/C(=O)N1CC[C@@H](Nc2n[nH]c3nccc(Oc4ccc(C(=O)Nc5cc(OC6CC6)ccn5)cc4)c23)C1)C1CC1 [compound 76, (R,E)-N-(4-cyclopropoxypyridin-2-yl)-4-(3-(1-(4-(cyclopropyl(methyl)amino)but-2-enoyl)pyrrolidin-3-ylamino)-1H-pyrazolo[3,4-b]pyridin-4-yloxy)benzamide]
19 | < 100 | 100 to 1000 | 100 to 1000 | N#C/C(=C\c1ccccn1)C(=O)N1CC[C@@H](Nc2n[nH]c3nccc(Oc4ccc(Oc5ccccc5)cc4)c23)C1 [compound 26, (2E)-2-[(E)-(3R)-3-{[4-(4-phenoxyphenoxy)-1H-pyrazolo[3,4-b]pyridin-3-yl]amino}pyrrolidine-1-carbonyl]-3-(pyridin-2-yl)prop-2-enenitrile]
20 | 100 to 1000 | 100 to 1000 | > 10000 | CN1CCC(C(=O)N2CCC[C@@H](Nc3n[nH]c4nccc(Oc5ccc(-c6nc7ccccc7s6)cc5)c34)C2)CC1 [compound 197, (3R)-N-{4-[4-(1,3-benzothiazol-2-yl)phenoxy]-1H-pyrazolo[3,4-b]pyridin-3-yl}-1-(1-methylpiperidine-4-carbonyl)piperidin-3-amine]
21 | < 100 | 100 to 1000 | 1000 to 10000 | CCC(=O)N1CC[C@@H](Nc2n[nH]c3nccc(Nc4ccc(C(=O)Nc5cc(C(F)(F)F)ccn5)cc4)c23)C1 [compound 70]
22 | 100 to 1000 | > 10000 | > 10000 | CN(C/C=C/C(=O)N1CC[C@@H](Nc2n[nH]c3nccc(Oc4ccc(C(=O)Nc5ncc[nH]5)cc4)c23)C1)C1CC1 [compound 67]
23 | < 100 | < 100 | 100 to 1000 | CN(C/C=C/C(=O)N1CC[C@@H](Nc2n[nH]c3nccc(Oc4ccc(Oc5ccccc5)cc4)c23)C1)C1CC1 [compound 10, (2E)-4-[cyclopropyl(methyl)amino]-1-[(3R)-3-{[4-(4-phenoxyphenoxy)-1H-pyrazolo[3,4-b]pyridin-3-yl]amino}pyrrolidin-1-yl]but-2-en-1-one]
24 | < 100 | 1000 to 10000 | > 10000 | CN(C/C=C/C(=O)N1CC[C@@H](Nc2n[nH]c3nccc(Oc4ccc(C(=O)Nc5ccccn5)cc4)c23)C1)C1CC1 [compound 55]
25 | > 10000 | > 10000 | > 10000 | CN(C/C=C/C(=O)Nc1ccccc1Nc1n[nH]c2nccc(Oc3ccc(Oc4ccccc4)cc3)c12)C1CC1 [compound 57]
26 | < 100 | 100 to 1000 | 1000 to 10000 | CN(C/C=C/C(=O)N1CC[C@@H](Nc2n[nH]c3nccc(Oc4ccc(C(=O)Nc5cc(C6CC6)ccn5)cc4)c23)C1)C1CC1 [compound 60]
27 | < 100 | < 100 | 100 to 1000 | CC(=O)N1CC[C@@H](Nc2n[nH]c3nccc(Oc4ccc(Oc5ccccc5)cc4)c23)C1 [compound 46]
